# Measured values as given in US20150374712A1, “Combinations of Dopamine D2 Receptor Blockade With Norepinephrine Reuptake Inhibition and with Norepinephrine Alpha 2 Receptor Blockade” (priority 2007, published 2015).
# “Also recorded” adds a separate entry of the source.
# Tests used:
# Syrian golden hamster [1] = settings: vs vehicle, Example 1 (prior art, FIG. 1, Green et al. 2004); cited from earlier work
# alcohol preferring P rat = experiment: Initiation of alcohol drinking in alcohol-preferring P rats; format: in vivo
# Experimental: (§1) All animals were given 24 hours/day access to 10-15% alcohol and water in two separate drinking bottles. Groups of animals (n=6-10/group) received daily injections of the specific drug or drug combination or vehicle for up to 4 weeks.
# Syrian golden hamster [2] = experiment: Chronic alcohol drinking in Syrian golden hamsters (free choice of alcohol and water); format: in vivo, Mesocricetus auratus
# Experimental: as §1
structure (smiles),measurement,setting,value
O=C(CCCN1CCC(O)(c2ccc(Cl)cc2)CC1)c1ccc(F)cc1 [haloperidol],chronic alcohol drinking,Syrian golden hamster [1],No dose of haloperidol tested had an effect on alcohol drinking; also recorded: very little effect on chronic alcohol drinking
same,initiation of alcohol drinking,"alcohol preferring P rat; low-dose haloperidol, Example 7, FIG. 7",minimal ability to blunt the initiation of alcohol drinking
Cc1nc2n(c(=O)c1CCN1CCC(c3noc4cc(F)ccc34)CC1)CCCC2 [risperidone],alcohol drinking (initiation of alcohol drinking),"alcohol preferring P rat; low dose of risperidone, Example 11, FIG. 11",only a modest effect on alcohol drinking
same,alcohol drinking (chronic drinking),"Syrian golden hamster [2]; hamster, low dose of risperidone, Examples 9-10, FIGS. 9, 10",only a modest effect on alcohol drinking
CN1CCN(C2=Nc3cc(Cl)ccc3Nc3ccccc32)CC1 [clozapine],duration of clozapine's effect on alcohol drinking,"Syrian golden hamster [2]; Syrian golden hamster, chronic clozapine, Example 2, FIG. 2, unpublished data",at least 1 month
